Laboratory results from US20260294915A1, “COMBINATION THERAPY COMPRISING A MAT2A INHIBITOR AND A TOPOISOMERASE INHIBITOR, A SPLICING INHIBITOR SULFONAMIDE, OR A KIF18 INHIBITOR” (IDEAYA BIOSCIENCES, INC., priority 2023, published 2026).

Experiments:
Format in all cases: cell-based
UMUC5 = experiment: 10-day proliferation (CTG), Compound B titration + 1000 nM Compound A, Bliss (Example 2); design: key to GDI: GDI, -100 to 100; 0 = cell number at T0
Experimental: (§1) A 10-day proliferation assay was performed in a panel of 5 MTAP-deficient and 2 wild type non-small cell lung and bladder cancer cell lines. Optimal cell seeding for all cell lines was determined by assessing the growth over a range of seeding densities in a 384-well format to identify conditions that permitted proliferation for 10 days. Cells were then plated at the optimal seeding density and treated with 20-point, two-fold dilution series of Compound B in combination with a 1000 nM fixed concentration of Compound A. Single agent titrations for Compound A and Compound B were included for comparison. Concentrations tested for Compound A and Compound B alone or in combination ranged from 0.038 nM to 20,000 nM. A plate of cells was harvested at the time of compound addition to quantify the number of cells at the start of the combination (T0). For cell quantification, the harvested cells were lysed with Promega CellTiter-Glo (CTG) reagent according to the manufacturer's protocol and the chemiluminescent signal was detected as described in Example 1 above. Cells were incubated with the drug combinations at 37° C. with 5% CO2 for 10 days. Cells were then lysed with CTG and the chemiluminescent signal was measured.
(§2) CTG values obtained after the 10-day treatment were background subtracted and expressed as a percent of the T0 value set at 100%. Data were plotted against compound concentration and fit with a four-parameter equation to generate single agent dose response curves. Percent inhibition was determined for each combination and single agent concentration compared to a DMSO control. In addition, the overall net growth or death of the cells was calculated and reported as a growth death index (GDI) value on a scale of −100 to 100 with the midpoint (0) being the number of cells at the beginning of the combination (T0).
(§3) Predicted inhibition was calculated using (Ea+Eb)−(Ea*Eb) where E equals the effect (inhibition) of each single agent (a and b). A difference between the observed inhibition percentage and the predicted inhibition percentage greater than 10% was considered synergistic. A Bliss score was only calculated for combinations eliciting >20% growth inhibition (GDI value <80). Since Bliss is calculated based on growth inhibition, scores within cytotoxic dose ranges may not accurately reflect synergistic cytotoxicity.
(§4) Synergy was measured across the Compound B titration with 1000 nM Compound A by Bliss Independence analysis. Bliss scores >10 are indicated by “*” and are considered synergistic. […] Synergy as reported using Bliss may be underrepresented within cytotoxic dose ranges. Growth death index values are shown for the combination titration and each single agent Compound A (Cmpd A) and Compound B (Cmpd B) on a scale of −100 to 100 with the midpoint (0) being the number of cells at the beginning of the combination (T0).

TCCSUP = experiment: 10-day proliferation (CTG), equimolar Compound A + Compound B (Example 1); details: Homo sapiens, TCC-SUP, 240 h, 10 days, single agent or 1:1 combo; for IC100: read-out: gIC100, heading: gIC100; for IC30: read-out: gIC30; for IC40: read-out: gIC40; for IC50: read-out: gIC50; for IC60: read-out: gIC60; for IC70: read-out: gIC70; for IC80: read-out: gIC80; for IC90: read-out: gIC90
Experimental: (§5) A 10-day proliferation assay was performed in a panel of 5 MTAP-deficient and 2 wild type non-small cell lung and bladder cancer cell lines. Optimal cell seeding for all cell lines was determined by assessing the growth over a range of seeding densities in a 384-well format to identify conditions that permitted proliferation for 10 days. Cells were then plated at the optimal seeding density and treated with 20-point, two-fold dilution series of Compound A, sovilnesib (“Compound B”), or an equimolar combination of Compound A and Compound B. Concentrations tested for Compound A and Compound B alone or in combination ranged from 0.038 nM to 20,000 nM. A plate of cells was harvested at the time of compound addition to quantify the number of cells at the start of the combination (T0). For cell quantification, the harvested cells were lysed with Promega CellTiter-Glo (CTG) reagent according to the manufacturer's protocol and the chemiluminescent signal was detected on a Synergy Neo plate reader. CTG estimates cell number through detection of cellular ATP levels. Cells were incubated with the drug combinations at 37° C. with 5% CO2 for 10 days. Cells were then lysed with CTG and the chemiluminescent signal was measured.
(§6) CTG values obtained after the 10-day treatment were background subtracted and expressed as a percent of the T0 value. Data were plotted against compound concentration and fit with a four-parameter equation to generate dose response curves for each single agent and the equimolar combination. Growth ICx (gICx) values ranging from gIC30 to gIC100 were interpolated from the fitted curves. Synergistic growth inhibition was assessed by determination of Combination Index (CI) values at these various points across the titration using the mutually non-exclusive equation [Chou, 1983; Chou, 1981] shown below where A equals the gIC value of Compound A, B equals the gICx value of Compound B, and A+B or B+A equals the gICx value of the equimolar combination. A Combination Index value less than 1.0 was considered synergistic.
(§7) Synergy was measured for equimolar combinations of Compound A and Compound B utilizing the mutually non-exclusive Combination Index equation across gICx values ranging from gIC30-gIC100. Combination Index values are shown for: NCI-H520 (4A) and TCCSUP (41B).

NCI-H520 = experiment: as above; details: Homo sapiens, NCI-H520, 240 h, 10 days, single agent or 1:1 combo; for IC30: read-out: gIC30; for IC40: read-out: gIC40; for IC50: read-out: gIC50; for IC60: read-out: gIC60; for IC70: read-out: gIC70; for IC80: read-out: gIC80; for IC90: read-out: gIC90; for IC100: read-out: gIC100
Experimental: as §5, §6, §7

NCI-H838 = experiment: 10-day proliferation (CTG), Compound B titration + 1000 nM Compound A, Bliss (Example 2); design: key: GDI, -100 to 100; 0 = cell number at T0
Experimental: as §1, §2, §3, §4

RT112/84 = experiment: as above; design: key: GDI, -100 to 100; 0 = cell number at T0
Experimental: as §1, §2, §3, §4

[1] = Cmpd B 0.04 nM, combo: + 1000 nM Cmpd A
[2] = Cmpd B 0.1 nM, combo: + 1000 nM Cmpd A
[3] = Cmpd B 0.2 nM, combo: + 1000 nM Cmpd A
[4] = Cmpd B 0.3 nM, combo: + 1000 nM Cmpd A
[5] = Cmpd B 0.6 nM, combo: + 1000 nM Cmpd A
[6] = Cmpd B 1.2 nM, combo: + 1000 nM Cmpd A
[7] = Cmpd B 2.4 nM, combo: + 1000 nM Cmpd A
[8] = Cmpd B 4.9 nM, combo: + 1000 nM Cmpd A
[9] = Cmpd B 9.8 nM, combo: + 1000 nM Cmpd A
[10] = Cmpd B 19.5 nM, combo: + 1000 nM Cmpd A
[11] = Cmpd B 39.1 nM, combo: + 1000 nM Cmpd A
[12] = Cmpd B 78.1 nM, combo: + 1000 nM Cmpd A
[13] = Cmpd B 156.3 nM, combo: + 1000 nM Cmpd A
[14] = Cmpd B 312.5 nM, combo: + 1000 nM Cmpd A
[15] = Cmpd B 625 nM, combo: + 1000 nM Cmpd A
[16] = Cmpd B 1250 nM, combo: + 1000 nM Cmpd A
[17] = Cmpd B 2500 nM, combo: + 1000 nM Cmpd A
[18] = Cmpd B 5000 nM, combo: + 1000 nM Cmpd A
[19] = Cmpd B 10000 nM, combo: + 1000 nM Cmpd A
[20] = Cmpd B 20000 nM, combo: + 1000 nM Cmpd A

Nc1nc(=O)n(-c2ccccc2Cl)c2nc(C(F)(F)F)ccc12 [Compound A]
GDI (UMUC5; single agent, 1000 nM Cmpd A): 59
IC100 (TCCSUP): > 20 µM
IC30 (TCCSUP): 20 µM
IC40 (TCCSUP): 20 µM
IC50 (TCCSUP): 20 µM
IC60 (TCCSUP): 20 µM
IC70 (TCCSUP): 20 µM
IC80 (TCCSUP): 20 µM
IC90 (TCCSUP): 20 µM
IC30 (NCI-H520): 20 µM
IC40 (NCI-H520): 20 µM
IC50 (NCI-H520): 20 µM
IC60 (NCI-H520): 20 µM
IC70 (NCI-H520): 20 µM
IC80 (NCI-H520): 20 µM
IC90 (NCI-H520): 20 µM
IC100 (NCI-H520): 20 µM
GDI (NCI-H838; single agent, 1000 nM Cmpd A): 52
GDI (RT112/84; single agent, 1000 nM Cmpd A): 60

Cc1cc(NC(=O)c2ccc(NS(=O)(=O)CCO)cc2N2CCC3(CC2)CC3)nc(N2CCC(F)(F)CC2)n1 [Compound B, N-(2-(4,4-difluoropiperidin-1-yl)-6-methylpyrimidin-4-yl)-4-((2-hydroxyethyl)sulfonamido)-2-(6-azaspiro[2.5]octan-6-yl)benzamide]
GDI (UMUC5; [1]): 97
GDI (UMUC5; [2]): 100
GDI (UMUC5; [3]): 100
GDI (UMUC5; [4]): 100
GDI (UMUC5; [5]): 100
GDI (UMUC5; [6]): 96
GDI (UMUC5; [7]): 100
GDI (UMUC5; [8]): 99
GDI (UMUC5; [9]): 100
GDI (UMUC5; [10]): 100
GDI (UMUC5; [11]): 100
GDI (UMUC5; [12]): 100
GDI (UMUC5; [13]): 75
GDI (UMUC5; [14]): 26
GDI (UMUC5; [15]): 17
GDI (UMUC5; [16]): 16
GDI (UMUC5; [17]): 15
GDI (UMUC5; [18]): 5
GDI (UMUC5; [19]): −87
GDI (UMUC5; [20]): −91
single agent dose sufficient to maximally inhibit cell growth (UMUC5; single agent): 5 µM
IC100 (TCCSUP): > 20 µM
IC30 (TCCSUP): 0.091 µM
IC40 (TCCSUP): 0.107 µM
IC50 (TCCSUP): 0.126 µM
IC60 (TCCSUP): 0.15 µM
IC70 (TCCSUP): 0.183 µM
IC80 (TCCSUP): 0.24 µM
IC90 (TCCSUP): 0.405 µM
IC30 (NCI-H520): 2.81 µM
IC40 (NCI-H520): 4.16 µM
IC50 (NCI-H520): 5.8 µM
IC60 (NCI-H520): 7.73 µM
IC70 (NCI-H520): 9.98 µM
IC80 (NCI-H520): 12.5 µM
IC90 (NCI-H520): 15.5 µM
IC100 (NCI-H520): 18.7 µM
GDI (NCI-H838; [1]): 100
GDI (NCI-H838; [2]): 100
GDI (NCI-H838; [3]): 100
GDI (NCI-H838; [4]): 100
GDI (NCI-H838; [5]): 100
GDI (NCI-H838; [6]): 100
GDI (NCI-H838; [7]): 100
GDI (NCI-H838; [8]): 100
GDI (NCI-H838; [9]): 100
GDI (NCI-H838; [10]): 100
GDI (NCI-H838; [11]): 100
GDI (NCI-H838; [12]): 100
GDI (NCI-H838; [13]): 74
GDI (NCI-H838; [14]): 65
GDI (NCI-H838; [15]): 55
GDI (NCI-H838; [16]): 48
GDI (NCI-H838; [17]): 58
GDI (NCI-H838; [18]): 87
GDI (NCI-H838; [19]): 61
GDI (NCI-H838; [20]): −1
GDI (RT112/84; [1]): 100
GDI (RT112/84; [2]): 100
GDI (RT112/84; [3]): 100
GDI (RT112/84; [4]): 100
GDI (RT112/84; [5]): 100
GDI (RT112/84; [6]): 100
GDI (RT112/84; [7]): 100
GDI (RT112/84; [8]): 100
GDI (RT112/84; [9]): 100
GDI (RT112/84; [10]): 100
GDI (RT112/84; [11]): 100
GDI (RT112/84; [12]): 100
GDI (RT112/84; [13]): 63
GDI (RT112/84; [14]): 30
GDI (RT112/84; [15]): 24
GDI (RT112/84; [16]): 31
GDI (RT112/84; [17]): 31
GDI (RT112/84; [18]): 33
GDI (RT112/84; [19]): 2
GDI (RT112/84; [20]): −86
